Measurements from publication PMC9046208, “Foldamers reveal and validate therapeutic targets associated with toxic α-synuclein self-assembly” (Nature Communications, 2022).

What was measured:
[1] = tested on: HEK cells expressing αS-A53T-YFP; experiment: Inclusion count by confocal imaging, HEK cells αS-A53T-YFP; assay type: cell-based; settings: αS fibers 7 μM aggregated with equimolar SK-129, 24 h
Procedure: The Lipofectamine solution (Lipofectamine+P3000 reagent, Thermo Fisher Scientific, Waltham, MA) was diluted to a ratio of 1:20 (v,v) in the OptiMEM (Fisher Scientific, Pittsburgh, PA) media. Simultaneously, the αS fiber solution (Stock solution conc. = 100 μM) was diluted in OptiMEM media to the desired conc. used for each assay. The αS fiber solution was sonicated for 10 min at r.t., followed by the addition of the Lipofectomine solution (in the OptiMEM media) at 1:1 ratio. Subsequently, this solution was incubated for another 10 min and then added to the HEK cells media with a dilution factor of 10 (10 μL of the combined αS fiber solution+Lipofectomine solution, in 90 μL HEK cells media). […]
We used confocal microscopy imaging to manually count the endogenous inclusions (of αS-A53T-YFP and αS-YFP). […] The counting of inclusions was carried out for six different experiments and for each experiment, 100 cells were counted from at least four different locations from the eight-well plate. The cells were counted manually by counting the number of Hoechst 33342 dye-stained nuclei in the cells. Also, the inclusions in the cells were counted manually at different locations in the eight-well plate.

[2] = target: Aβ42 aggregation (Homo sapiens, UniProt P05067); experiment: ThT aggregation assay, Aβ42; assay type: biochemical; settings: equimolar ratio
Procedure: The aggregation kinetics of αS was monitored using ThT fluorescence assay (λex = 450 nm and λem = 485 nm). To study the aggregation kinetics of αS, the ThT dye at a final concentration of 50 μM was added to 100 μM αS solution in the aggregation buffer (1 x PBS buffer) with and without various concentrations of SK-129 in a Costar black 96–well plate (Corning Inc., Kennebunk, ME). The small molecules were dissolved in dimethyl sulfoxide (DMSO; final DMSO concentration = 0.5%, v/v). The final volume in each well was 140 μL. The plate was incubated at 37 °C with 16 min shaking (434 rpm) and 44 min without shaking in an Infinite M200PRO plate reader (Tecan, Männedorf, Switzerland) and fluorescence was recorded after every hour. We used two methods to quantify the effect of molecules on the aggregation of αS; either we have reported the t50 (time required to reach 50% fluorescence of ThT), which was extracted by fitting the ThT curve as a sigmoidal fit or the absolute ThT fluorescence intensity was reported. […] In the second method, we determined the final ThT fluorescence intensity for the aggregation of αS/Aβ42(with or without ligands) as an average of three separate experiments. […]
The data were expressed as mean and the error bars report the s.e.m. […]

Sequence of Aβ42 aggregation (P05067 672-713 limits assumed): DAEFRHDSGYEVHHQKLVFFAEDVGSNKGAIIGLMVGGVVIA

effect on Aβ aggregation [2]: did not show any noticeable effect
SMILES: COC(=O)c1cc(OCC(=O)O)c2cccc(NC(=O)c3cc(OC(C)C)c4cccc(NC(=O)c5cc(OCC(=O)O)c6cccc(NC(=O)c7cc(OC(C)C)c8cccc([N+](=O)[O-])c8n7)c6n5)c4n3)c2n1 [SK-129]
inclusions (αS-A53T-YFP or αS-YFP) [1]: A very small number of inclusions
